Results published in patent publication US7691858B2, “Kinase inhibitors and methods of use thereof” (TargeGen, Inc., priority 2006, dated 2010).

Tests used:
[1] = tested on: ERK phosphorylation; assay: VEGF-stimulated ERK phosphorylation in EC (Western blot); type: cell-based; conditions: 10 uM Compound I, EC with VEGF
Method: (§1) FIG. 3. Inhibition of cell proliferation and signaling. (a) EC were cultured in the presence of vehicle (DMSO) or PI3K inhibitors (all at 10 μM); cell proliferation was assessed either 24 (open bar), 48 (grey bar), or 72 h (black bar) later.
(§2) Western blots: Cell cultures were rinsed twice with PBS and then lysed using RIPA buffer (100 mM Tris, 150 mM NaCl, 2 mM CaCl2, 1% deoxycholic acid, 1% Triton X-100, 0.1% SDS, pH 7.5) containing PMSF (2 mM), NaF (500 mM), aprotinin (10 μg/ml), leupeptin (10 μg/ml) and vanadate (1 mM). Tissue samples were placed in ice-cold RIPA buffer and processed to lysates using a FastPrep homogenizer (QBiogene, Carlsbad, Calif.). Lysates were centrifuged at 15,000×g followed by assay for total protein using the bicinchoninic acid method (Pierce Biotechnology, Rockford, Ill.), then loaded at equal protein concentration onto gels for SDS-PAGE electrophoresis and Western blotting. For phosphorylated VE-cadherin detection blots were probed with primary antibody (Santa Cruz Biotechnology, Santa Cruz, Calif.) followed by a chemiluminescent detection system (Pierce Biotechnology). The same techniques were used to detect both phosphorylated and total ERK and Akt, except that primary antibodies were supplied by Cell Signaling Technology (Beverly, Mass.) and BD Biosciences (San Jose, Calif.), respectively.

[2] = tested on: VE-cadherin phosphorylation; assay: VEGF-induced VE-cadherin phosphorylation in EC (Western blot); type: cell-based; conditions: 10 uM Compound I, EC with VEGF
Method: as §1, §2

[3] = biological target: EphA2 (Homo sapiens, UniProt P29317); assay: Kinase panel screen; type: biochemical; conditions: Compound I and ATP 10 μM
[4] = biological target: T1, MEK1 (Homo sapiens, UniProt Q02750); assay: Kinase panel screen; type: biochemical; conditions: Compound I and ATP 10 μM
T1 construct: purchased Upstate USA or Invitrogen (commercial screening service)

[5] = biological target: T2, PKCy (Homo sapiens, UniProt P05129); assay: Kinase panel screen; type: biochemical; conditions: Compound I and ATP 10 μM
T2 construct: purchased Upstate USA or Invitrogen (commercial screening service)

[6] = tested on: AMPK; assay: Kinase panel screen; type: biochemical, rat; conditions: Compound I and ATP 10 μM
[7] = biological target: MKK4 (Mus musculus, UniProt P47809); assay: Kinase panel screen; type: biochemical; conditions: Compound I and ATP 10 μM
[8] = biological target: T3, FGFR4 (Homo sapiens, UniProt P22455); assay: Kinase panel screen; type: biochemical; conditions: Compound I and ATP 10 μM
T3 construct: purchased Upstate USA or Invitrogen (contract screening service)

[9] = biological target: T4, Axl (Homo sapiens, UniProt P30530); assay: Kinase panel screen; type: biochemical; conditions: Compound I and ATP 10 μM
T4 construct: purchased Upstate USA or Invitrogen (contract screening service)

[10] = biological target: T5, MST1 (Homo sapiens, UniProt Q13043); assay: Kinase panel screen; type: biochemical; conditions: Compound I and ATP 10 μM
T5 construct: purchased Upstate USA or Invitrogen (commercial screening service)

[11] = biological target: T6, Fms (Homo sapiens, UniProt P07333); assay: Kinase panel screen; type: biochemical; conditions: Compound I and ATP 10 μM
T6 construct: purchased Upstate USA or Invitrogen (commercial screening service)

[12] = biological target: T7, NEK2 (Homo sapiens, UniProt P51955); assay: Kinase panel screen; type: biochemical; conditions: Compound I and ATP 10 μM
T7 construct: purchased Upstate USA or Invitrogen (commercial screening service)

[13] = biological target: T8, BTK (Homo sapiens, UniProt Q06187); assay: Kinase panel screen; type: biochemical; conditions: Compound I and ATP 10 μM
T8 construct: purchased Upstate USA or Invitrogen (commercial screening service)

[14] = biological target: T9, Rse (Homo sapiens, UniProt Q06418); assay: Kinase panel screen; type: biochemical; conditions: Compound I and ATP 10 μM
T9 construct: purchased Upstate USA or Invitrogen (commercial screening service)

[15] = biological target: T10, Rsk1 (Rattus norvegicus, UniProt Q63531); assay: Kinase panel screen; type: biochemical; conditions: Compound I and ATP 10 μM
T10 construct: purchased Upstate USA or Invitrogen (commercial screening service)

[16] = biological target: T11, Hck (Homo sapiens, UniProt P08631); assay: Kinase panel screen; type: biochemical; conditions: Compound I and ATP 10 μM
T11 construct: purchased Upstate USA or Invitrogen (commercial screening service)

[17] = biological target: T12, IGF-1R (Homo sapiens, UniProt P08069); assay: Kinase panel screen; type: biochemical; conditions: Compound I and ATP 10 μM
T12 construct: purchased Upstate USA or Invitrogen (commercial screening service)

[18] = biological target: T13, PAR-1Ba (Homo sapiens, UniProt Q7KZI7); assay: Kinase panel screen; type: biochemical; conditions: Compound I and ATP 10 μM
T13 construct: purchased Upstate USA or Invitrogen (commercial screening service)

[19] = biological target: T14, SAPK2b (Homo sapiens, UniProt Q15759); assay: Kinase panel screen; type: biochemical; conditions: Compound I and ATP 10 μM
T14 construct: purchased Upstate USA or Invitrogen (commercial screening service)

[20] = biological target: T15, CDK2 (Homo sapiens, UniProt P24941); assay: Kinase panel screen; type: biochemical; conditions: Compound I and ATP 10 μM
T15 construct: purchased Upstate USA or Invitrogen (commercial screening service)

[21] = biological target: T16, IKKa (Homo sapiens, UniProt O15111); assay: Kinase panel screen; type: biochemical; conditions: Compound I and ATP 10 μM
T16 construct: purchased Upstate USA or Invitrogen (commercial screening service)

[22] = biological target: T15, CDK2; assay: Kinase panel screen; type: biochemical; conditions: Compound I and ATP 10 μM; remark: listed apart in the source
[23] = biological target: T17, IR (Homo sapiens, UniProt P06213); assay: Kinase panel screen; type: biochemical; conditions: Compound I and ATP 10 μM
T17 construct: purchased Upstate USA or Invitrogen (commercial screening service)

[24] = biological target: T18, Syk (Homo sapiens, UniProt P43405); assay: Kinase panel screen; type: biochemical; conditions: Compound I and ATP 10 μM
T18 construct: purchased Upstate USA or Invitrogen (contract screening service)

[25] = biological target: CHK1 (Homo sapiens, UniProt O14757); assay: Kinase panel screen; type: biochemical; conditions: Compound I and ATP 10 μM
[26] = biological target: JNK2a2 (Homo sapiens, UniProt P45984); assay: Kinase panel screen; type: biochemical; conditions: Compound I and ATP 10 μM
[27] = biological target: T19, CK18 (Homo sapiens, UniProt P48730); assay: Kinase panel screen; type: biochemical; conditions: Compound I and ATP 10 μM
T19 construct: purchased Upstate USA or Invitrogen (contract screening service)

[28] = biological target: T20, PKCa (Homo sapiens, UniProt P17252); assay: Kinase panel screen; type: biochemical; conditions: Compound I and ATP 10 μM
T20 construct: purchased Upstate USA or Invitrogen (contract screening service)

[29] = biological target: T21, CK2 (Homo sapiens, UniProt P68400); assay: Kinase panel screen; type: biochemical; conditions: Compound I at 1 μM and ATP at the apparent Km
T21 construct: purchased Upstate USA or Invitrogen (contract screening service)

[30] = biological target: T22, Lck (Homo sapiens, UniProt P06239); assay: Kinase panel screen; type: biochemical; conditions: Compound I and ATP 10 μM
T22 construct: purchased Upstate USA or Invitrogen (contract screening service)

[31] = biological target: T23, ZAP-70 (Homo sapiens, UniProt P43403); assay: Kinase panel screen; type: biochemical; conditions: Compound I and ATP 10 μM
T23 construct: purchased Upstate USA or Invitrogen (commercial screening service)

[32] = biological target: ZIPK (Homo sapiens, UniProt O43293); assay: Kinase panel screen; type: biochemical; conditions: Compound I and ATP 10 μM
[33] = biological target: T24, DDR2 (Homo sapiens, UniProt Q16832); assay: Kinase panel screen; type: biochemical; conditions: Compound I and ATP 10 μM
T24 construct: purchased Upstate USA or Invitrogen (commercial screening service)

[34] = biological target: T25, MAPK3 (Homo sapiens, UniProt P27361); assay: Kinase panel screen; type: biochemical; conditions: Compound I at 1 μM and ATP at the apparent Km
T25 construct: purchased Upstate USA or Invitrogen (commercial screening service)
T25 sequence (P27361 whole entry): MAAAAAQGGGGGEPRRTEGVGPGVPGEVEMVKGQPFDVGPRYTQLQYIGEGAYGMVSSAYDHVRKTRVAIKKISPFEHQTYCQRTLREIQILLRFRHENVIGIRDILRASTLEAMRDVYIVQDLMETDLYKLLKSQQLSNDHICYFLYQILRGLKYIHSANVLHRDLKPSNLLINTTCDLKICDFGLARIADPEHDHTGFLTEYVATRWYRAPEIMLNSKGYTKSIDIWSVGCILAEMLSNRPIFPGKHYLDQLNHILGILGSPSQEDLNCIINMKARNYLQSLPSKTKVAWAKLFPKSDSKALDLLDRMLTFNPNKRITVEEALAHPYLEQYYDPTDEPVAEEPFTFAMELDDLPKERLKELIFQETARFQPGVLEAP

T9 sequence (Q06418 41-890): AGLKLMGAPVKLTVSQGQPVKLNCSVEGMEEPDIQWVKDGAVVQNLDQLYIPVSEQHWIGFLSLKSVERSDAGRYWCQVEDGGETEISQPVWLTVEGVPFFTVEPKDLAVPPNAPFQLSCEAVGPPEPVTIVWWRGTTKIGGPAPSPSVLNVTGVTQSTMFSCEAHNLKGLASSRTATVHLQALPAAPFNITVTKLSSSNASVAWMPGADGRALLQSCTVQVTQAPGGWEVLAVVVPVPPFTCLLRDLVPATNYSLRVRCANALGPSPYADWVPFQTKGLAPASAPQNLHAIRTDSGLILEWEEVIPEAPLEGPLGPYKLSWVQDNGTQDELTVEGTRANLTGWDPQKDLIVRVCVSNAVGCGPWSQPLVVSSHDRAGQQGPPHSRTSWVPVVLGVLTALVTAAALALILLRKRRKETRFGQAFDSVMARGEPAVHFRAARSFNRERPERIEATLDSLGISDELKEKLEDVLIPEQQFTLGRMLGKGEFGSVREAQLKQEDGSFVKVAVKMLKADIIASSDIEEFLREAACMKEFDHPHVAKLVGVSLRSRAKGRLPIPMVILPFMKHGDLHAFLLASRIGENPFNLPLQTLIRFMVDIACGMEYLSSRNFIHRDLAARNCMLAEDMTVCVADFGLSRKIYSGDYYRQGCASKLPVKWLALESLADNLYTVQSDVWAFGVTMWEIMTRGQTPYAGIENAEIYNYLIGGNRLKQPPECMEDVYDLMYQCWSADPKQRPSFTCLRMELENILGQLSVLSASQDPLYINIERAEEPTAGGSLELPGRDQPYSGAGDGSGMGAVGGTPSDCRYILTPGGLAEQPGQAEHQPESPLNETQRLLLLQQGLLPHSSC
T16 sequence (O15111 whole entry): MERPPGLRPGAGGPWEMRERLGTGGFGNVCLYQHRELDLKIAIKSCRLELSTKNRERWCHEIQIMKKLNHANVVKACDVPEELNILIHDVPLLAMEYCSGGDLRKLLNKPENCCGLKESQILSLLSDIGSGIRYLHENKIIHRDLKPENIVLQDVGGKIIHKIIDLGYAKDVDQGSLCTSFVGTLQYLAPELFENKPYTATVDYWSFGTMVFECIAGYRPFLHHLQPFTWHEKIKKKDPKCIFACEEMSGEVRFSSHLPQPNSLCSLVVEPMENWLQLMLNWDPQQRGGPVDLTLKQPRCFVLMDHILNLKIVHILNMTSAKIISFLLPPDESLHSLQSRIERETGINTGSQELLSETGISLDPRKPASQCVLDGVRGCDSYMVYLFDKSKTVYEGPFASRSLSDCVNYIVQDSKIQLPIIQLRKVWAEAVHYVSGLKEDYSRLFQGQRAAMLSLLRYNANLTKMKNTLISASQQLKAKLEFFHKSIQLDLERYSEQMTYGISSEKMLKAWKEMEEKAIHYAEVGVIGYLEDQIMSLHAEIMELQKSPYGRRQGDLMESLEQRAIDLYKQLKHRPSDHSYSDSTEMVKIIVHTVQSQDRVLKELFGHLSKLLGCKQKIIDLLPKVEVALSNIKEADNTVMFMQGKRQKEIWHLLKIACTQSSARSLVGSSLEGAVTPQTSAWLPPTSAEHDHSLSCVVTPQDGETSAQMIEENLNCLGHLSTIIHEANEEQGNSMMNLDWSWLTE
T3 sequence (P22455 22-802): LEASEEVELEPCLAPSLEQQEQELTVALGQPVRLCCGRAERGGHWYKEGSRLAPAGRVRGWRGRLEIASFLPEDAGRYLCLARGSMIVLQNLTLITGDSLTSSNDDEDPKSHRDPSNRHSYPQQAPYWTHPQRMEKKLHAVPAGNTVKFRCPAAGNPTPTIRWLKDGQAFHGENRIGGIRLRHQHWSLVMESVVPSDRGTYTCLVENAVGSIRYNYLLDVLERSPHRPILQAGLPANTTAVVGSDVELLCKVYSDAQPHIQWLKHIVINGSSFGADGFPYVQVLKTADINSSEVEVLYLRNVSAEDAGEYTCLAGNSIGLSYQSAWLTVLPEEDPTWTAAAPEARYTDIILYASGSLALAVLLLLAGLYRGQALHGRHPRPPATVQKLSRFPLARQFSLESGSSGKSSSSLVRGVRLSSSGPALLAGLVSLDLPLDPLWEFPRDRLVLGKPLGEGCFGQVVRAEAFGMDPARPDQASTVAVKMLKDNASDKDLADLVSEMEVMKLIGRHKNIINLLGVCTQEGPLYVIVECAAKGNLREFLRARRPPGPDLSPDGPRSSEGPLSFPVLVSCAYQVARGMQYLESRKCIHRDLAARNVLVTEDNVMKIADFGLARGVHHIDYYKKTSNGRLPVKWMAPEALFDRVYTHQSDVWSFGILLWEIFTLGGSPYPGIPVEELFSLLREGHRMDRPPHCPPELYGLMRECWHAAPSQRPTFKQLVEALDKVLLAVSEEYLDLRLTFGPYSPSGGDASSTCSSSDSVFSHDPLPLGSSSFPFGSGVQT
T11 sequence (P08631 whole entry): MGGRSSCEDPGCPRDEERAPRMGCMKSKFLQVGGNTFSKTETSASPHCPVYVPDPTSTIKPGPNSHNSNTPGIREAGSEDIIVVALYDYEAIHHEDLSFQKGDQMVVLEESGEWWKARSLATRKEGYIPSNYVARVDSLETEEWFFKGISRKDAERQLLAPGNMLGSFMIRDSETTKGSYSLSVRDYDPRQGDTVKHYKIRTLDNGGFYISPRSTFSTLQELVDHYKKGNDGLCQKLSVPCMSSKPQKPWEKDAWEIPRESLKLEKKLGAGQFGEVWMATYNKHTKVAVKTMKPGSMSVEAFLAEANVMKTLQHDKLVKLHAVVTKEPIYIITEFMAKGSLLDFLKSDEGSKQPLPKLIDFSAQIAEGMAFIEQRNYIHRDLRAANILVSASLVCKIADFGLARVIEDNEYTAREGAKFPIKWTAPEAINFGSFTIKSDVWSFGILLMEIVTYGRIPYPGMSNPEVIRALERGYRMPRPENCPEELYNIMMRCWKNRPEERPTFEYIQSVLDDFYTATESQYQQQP
Sequence of MKK4 (P47809 whole entry): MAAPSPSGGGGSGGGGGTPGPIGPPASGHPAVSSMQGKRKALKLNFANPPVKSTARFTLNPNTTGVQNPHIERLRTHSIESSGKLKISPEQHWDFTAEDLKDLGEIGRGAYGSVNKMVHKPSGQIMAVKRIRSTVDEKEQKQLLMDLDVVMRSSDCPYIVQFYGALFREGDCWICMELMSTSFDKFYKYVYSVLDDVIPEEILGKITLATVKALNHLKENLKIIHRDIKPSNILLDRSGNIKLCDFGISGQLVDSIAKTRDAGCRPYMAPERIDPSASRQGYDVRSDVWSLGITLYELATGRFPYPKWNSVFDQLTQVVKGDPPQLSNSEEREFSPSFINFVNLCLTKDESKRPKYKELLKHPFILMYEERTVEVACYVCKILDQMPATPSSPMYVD
Sequence of JNK2a2 (P45984 whole entry): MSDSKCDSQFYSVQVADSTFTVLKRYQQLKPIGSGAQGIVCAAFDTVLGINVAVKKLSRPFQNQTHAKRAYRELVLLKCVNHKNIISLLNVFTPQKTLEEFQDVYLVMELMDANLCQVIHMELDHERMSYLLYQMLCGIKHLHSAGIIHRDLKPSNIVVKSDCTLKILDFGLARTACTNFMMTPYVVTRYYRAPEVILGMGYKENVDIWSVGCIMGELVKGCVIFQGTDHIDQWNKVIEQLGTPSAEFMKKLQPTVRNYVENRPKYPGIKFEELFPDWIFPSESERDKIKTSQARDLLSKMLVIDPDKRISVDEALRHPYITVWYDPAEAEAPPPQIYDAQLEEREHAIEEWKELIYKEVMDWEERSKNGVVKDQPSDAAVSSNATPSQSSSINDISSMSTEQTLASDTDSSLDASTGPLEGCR

Structure (SMILES): Nc1nc(N)c2nc(-c3cccc(O)c3)c(-c3cccc(O)c3)nc2n1 [Compound I, 6,7-bis-(3-hydroxyphenyl)-pteridine-2,4-diamine]
- VEGF-stimulated ERK phosphorylation [1]: no influence
- VEGF signaling culminating in VE-cadherin phosphorylation [2]: interrupt
- Percent Control, EphA2 [3]: 29%
- Percent Control, MEK1 [4]: 94%
- Percent Control, PKCy [5]: 75%
- Percent Control, AMPK (r) [6]: 88%
- Percent Control, MKK4 (m) [7]: 57%
- Percent Control, FGFR4 [8]: 94%
- Percent Control, Axl [9]: 76%
- Percent Control, MST1 [10]: 107%
- Percent Control, Fms [11]: 77%
- Percent Control, NEK2 [12]: 98%
- Percent Control, BTK [13]: 75%
- Percent Control, Rse [14]: 93%
- Percent Control, Rsk1 (r) [15]: 86%
- Percent Control, Hck [16]: 67%
- Percent Control, IGF-1R [17]: 104%
- Percent Control, PAR-1Ba [18]: 93%
- Percent Control, SAPK2b [19]: 87%
- Percent Control, CDK2 (first entry) [20]: 67%
- Percent Control, IKKa [21]: 100%
- Percent Control, CDK2 (second entry) [22]: 77%
- Percent Control, IR [23]: 81%
- Percent Control, Syk [24]: 76%
- Percent Control, CHK1 [25]: 100%
- Percent Control, JNK2a2 [26]: 91%
- Percent Control, CK18 [27]: 24%
- Percent Control, PKCa [28]: 90%
- Percent Control, CK2* [29]: 96%
- Percent Control, Lck [30]: 52%
- Percent Control, ZAP-70 [31]: 96%
- Percent Control, ZIPK [32]: 112%
- Percent Control, DDR2 [33]: 88%
- Percent Control, MAPK3* [34]: 99%
